Results as given in ChEMBL document CHEMBL1146709, “Tetrahydroisoquinoline based sulfonamide hydroxamates as potent matrix metalloproteinase inhibitors” (Bioorg Med Chem Lett, 2004).

Experiments:
[1] = biological target: 72 kDa type IV collagenase (Homo sapiens, UniProt P08253); test: Inhibition of matrix metalloprotease-2 (MMP-2)
[2] = biological target: Macrophage metalloelastase (Homo sapiens, UniProt P39900); test: Inhibition of matrix metalloprotease-12 (MMP-12)
[3] = biological target: T1, Matrilysin (Homo sapiens, UniProt P09237)
T1 sequence (P09237 whole entry): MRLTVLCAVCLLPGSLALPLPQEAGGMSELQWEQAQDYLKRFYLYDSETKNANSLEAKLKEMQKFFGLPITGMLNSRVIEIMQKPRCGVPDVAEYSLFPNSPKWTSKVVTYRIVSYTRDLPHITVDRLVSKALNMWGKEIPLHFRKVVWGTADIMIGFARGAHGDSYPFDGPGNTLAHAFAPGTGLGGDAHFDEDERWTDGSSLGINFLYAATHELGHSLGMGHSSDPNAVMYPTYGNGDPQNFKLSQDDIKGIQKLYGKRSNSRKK

[4] = biological target: T2, Interstitial collagenase (Homo sapiens, UniProt P03956); test: Inhibition of matrix metalloprotease-1 (MMP-1)
T2 sequence (P03956 whole entry): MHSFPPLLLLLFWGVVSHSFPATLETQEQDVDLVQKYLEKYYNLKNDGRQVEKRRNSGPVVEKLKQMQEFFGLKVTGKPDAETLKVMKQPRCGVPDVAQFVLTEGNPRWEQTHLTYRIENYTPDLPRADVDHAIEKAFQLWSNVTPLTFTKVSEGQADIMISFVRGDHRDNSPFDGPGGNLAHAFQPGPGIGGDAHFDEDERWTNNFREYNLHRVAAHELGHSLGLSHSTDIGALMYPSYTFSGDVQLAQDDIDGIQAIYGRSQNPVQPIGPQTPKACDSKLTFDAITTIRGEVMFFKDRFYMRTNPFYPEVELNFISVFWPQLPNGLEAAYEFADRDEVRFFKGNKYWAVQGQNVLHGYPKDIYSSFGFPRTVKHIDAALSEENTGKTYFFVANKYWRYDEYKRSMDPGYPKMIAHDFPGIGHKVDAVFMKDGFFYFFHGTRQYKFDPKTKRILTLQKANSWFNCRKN

[5] = biological target: Matrix metalloproteinase-9 (Homo sapiens, UniProt P14780); test: Inhibition of matrix metalloprotease-9 (MMP-9)
[6] = biological target: Matrix metalloproteinase-16 (Homo sapiens, UniProt P51512); test: Inhibition of matrix metalloprotease-16 (MMP-16)
[7] = biological target: T3, Matrix metalloproteinase-26 (Homo sapiens, UniProt Q9NRE1); test: Inhibition of matrix metalloprotease-26 (MMP-26)
T3 sequence (Q9NRE1 whole entry): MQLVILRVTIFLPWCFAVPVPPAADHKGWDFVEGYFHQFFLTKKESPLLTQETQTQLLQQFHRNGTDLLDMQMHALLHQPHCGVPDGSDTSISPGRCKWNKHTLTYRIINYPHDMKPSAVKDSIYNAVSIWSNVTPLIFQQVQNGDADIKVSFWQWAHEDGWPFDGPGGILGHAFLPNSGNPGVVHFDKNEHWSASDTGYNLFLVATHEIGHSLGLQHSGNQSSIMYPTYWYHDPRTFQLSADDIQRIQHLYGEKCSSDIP

[8] = biological target: Matrix metalloproteinase-15 (Homo sapiens, UniProt P51511); test: Inhibition of matrix metalloprotease-15 (MMP-15)
[9] = biological target: Matrix metalloproteinase-14 (Homo sapiens, UniProt P50281); test: Inhibition of matrix metalloprotease-14 (MMP-14)
[10] = biological target: T1, Matrilysin; test: Inhibition of matrix metalloprotease-7 (MMP-7)
[11] = biological target: T2, Interstitial collagenase
[12] = biological target: T3, Matrix metalloproteinase-26; test: Inhibition of matrix metalloprotease-26 (MMP-26) (inactive up to 50 uM)

Matrix metalloproteinase-9, sequence (P14780 whole entry): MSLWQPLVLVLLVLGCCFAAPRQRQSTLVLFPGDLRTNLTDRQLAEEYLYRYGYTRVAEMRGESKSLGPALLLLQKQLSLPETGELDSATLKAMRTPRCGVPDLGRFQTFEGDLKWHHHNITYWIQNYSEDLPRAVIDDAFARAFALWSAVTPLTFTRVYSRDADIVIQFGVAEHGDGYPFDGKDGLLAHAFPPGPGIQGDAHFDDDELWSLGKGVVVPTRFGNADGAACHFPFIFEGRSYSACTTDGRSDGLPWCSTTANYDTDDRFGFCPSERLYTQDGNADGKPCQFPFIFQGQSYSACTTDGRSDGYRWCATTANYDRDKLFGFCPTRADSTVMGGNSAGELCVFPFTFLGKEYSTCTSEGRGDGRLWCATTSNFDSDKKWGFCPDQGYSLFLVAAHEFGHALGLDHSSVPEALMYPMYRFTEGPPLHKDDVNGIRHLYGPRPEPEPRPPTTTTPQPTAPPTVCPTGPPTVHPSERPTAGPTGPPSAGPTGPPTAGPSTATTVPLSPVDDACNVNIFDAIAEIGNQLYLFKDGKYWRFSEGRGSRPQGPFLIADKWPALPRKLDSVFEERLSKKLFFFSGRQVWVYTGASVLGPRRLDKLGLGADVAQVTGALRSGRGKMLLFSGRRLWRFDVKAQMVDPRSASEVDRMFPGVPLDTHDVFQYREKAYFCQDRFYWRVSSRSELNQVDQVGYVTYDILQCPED
Macrophage metalloelastase, sequence (P39900 whole entry): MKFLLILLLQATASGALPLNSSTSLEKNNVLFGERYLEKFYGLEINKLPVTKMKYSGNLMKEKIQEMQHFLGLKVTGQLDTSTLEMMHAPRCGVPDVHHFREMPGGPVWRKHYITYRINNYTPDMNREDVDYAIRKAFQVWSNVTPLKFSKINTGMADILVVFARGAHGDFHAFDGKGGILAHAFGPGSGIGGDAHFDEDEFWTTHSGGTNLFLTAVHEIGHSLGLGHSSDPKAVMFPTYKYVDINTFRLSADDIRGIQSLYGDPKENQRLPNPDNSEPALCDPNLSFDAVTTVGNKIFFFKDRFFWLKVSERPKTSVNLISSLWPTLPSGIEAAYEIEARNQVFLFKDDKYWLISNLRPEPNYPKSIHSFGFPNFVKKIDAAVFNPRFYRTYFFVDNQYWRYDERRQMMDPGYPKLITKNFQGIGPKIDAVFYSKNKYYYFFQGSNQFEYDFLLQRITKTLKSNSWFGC
Matrix metalloproteinase-15, sequence (P51511 whole entry): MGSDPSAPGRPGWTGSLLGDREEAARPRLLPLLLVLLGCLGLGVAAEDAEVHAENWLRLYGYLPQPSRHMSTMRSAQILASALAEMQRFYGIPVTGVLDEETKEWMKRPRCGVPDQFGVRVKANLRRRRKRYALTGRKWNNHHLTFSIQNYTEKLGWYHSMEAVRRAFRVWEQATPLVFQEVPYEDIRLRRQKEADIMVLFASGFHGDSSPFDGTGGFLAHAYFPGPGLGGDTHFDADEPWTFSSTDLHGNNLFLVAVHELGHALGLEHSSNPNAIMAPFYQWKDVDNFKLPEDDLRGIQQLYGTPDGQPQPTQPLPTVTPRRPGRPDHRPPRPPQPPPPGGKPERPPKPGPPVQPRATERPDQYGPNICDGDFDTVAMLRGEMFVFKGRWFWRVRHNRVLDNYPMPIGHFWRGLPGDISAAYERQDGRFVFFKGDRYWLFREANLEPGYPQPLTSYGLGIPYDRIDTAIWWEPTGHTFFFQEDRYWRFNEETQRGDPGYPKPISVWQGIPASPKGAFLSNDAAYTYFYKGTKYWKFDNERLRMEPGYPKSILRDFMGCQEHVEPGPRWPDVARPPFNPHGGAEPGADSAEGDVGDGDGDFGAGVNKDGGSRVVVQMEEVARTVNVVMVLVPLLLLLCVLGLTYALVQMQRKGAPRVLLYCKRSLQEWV
Matrix metalloproteinase-16, sequence (P51512 whole entry): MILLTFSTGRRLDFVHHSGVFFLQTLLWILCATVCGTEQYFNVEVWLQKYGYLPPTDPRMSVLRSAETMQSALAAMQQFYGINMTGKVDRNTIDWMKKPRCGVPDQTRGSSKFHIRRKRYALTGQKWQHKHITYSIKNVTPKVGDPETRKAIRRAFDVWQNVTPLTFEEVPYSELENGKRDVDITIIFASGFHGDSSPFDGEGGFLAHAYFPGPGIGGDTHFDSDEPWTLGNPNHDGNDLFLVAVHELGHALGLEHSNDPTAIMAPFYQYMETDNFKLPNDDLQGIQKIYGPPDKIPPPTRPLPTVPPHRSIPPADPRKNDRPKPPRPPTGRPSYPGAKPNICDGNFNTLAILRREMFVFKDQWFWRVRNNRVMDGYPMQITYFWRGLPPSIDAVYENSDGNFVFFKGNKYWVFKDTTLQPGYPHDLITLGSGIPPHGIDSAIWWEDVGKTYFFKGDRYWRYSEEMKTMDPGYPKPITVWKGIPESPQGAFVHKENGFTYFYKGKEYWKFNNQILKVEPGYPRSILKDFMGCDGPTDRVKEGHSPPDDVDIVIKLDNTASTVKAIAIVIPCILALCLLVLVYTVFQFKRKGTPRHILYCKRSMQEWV
72 kDa type IV collagenase, sequence (P08253 whole entry): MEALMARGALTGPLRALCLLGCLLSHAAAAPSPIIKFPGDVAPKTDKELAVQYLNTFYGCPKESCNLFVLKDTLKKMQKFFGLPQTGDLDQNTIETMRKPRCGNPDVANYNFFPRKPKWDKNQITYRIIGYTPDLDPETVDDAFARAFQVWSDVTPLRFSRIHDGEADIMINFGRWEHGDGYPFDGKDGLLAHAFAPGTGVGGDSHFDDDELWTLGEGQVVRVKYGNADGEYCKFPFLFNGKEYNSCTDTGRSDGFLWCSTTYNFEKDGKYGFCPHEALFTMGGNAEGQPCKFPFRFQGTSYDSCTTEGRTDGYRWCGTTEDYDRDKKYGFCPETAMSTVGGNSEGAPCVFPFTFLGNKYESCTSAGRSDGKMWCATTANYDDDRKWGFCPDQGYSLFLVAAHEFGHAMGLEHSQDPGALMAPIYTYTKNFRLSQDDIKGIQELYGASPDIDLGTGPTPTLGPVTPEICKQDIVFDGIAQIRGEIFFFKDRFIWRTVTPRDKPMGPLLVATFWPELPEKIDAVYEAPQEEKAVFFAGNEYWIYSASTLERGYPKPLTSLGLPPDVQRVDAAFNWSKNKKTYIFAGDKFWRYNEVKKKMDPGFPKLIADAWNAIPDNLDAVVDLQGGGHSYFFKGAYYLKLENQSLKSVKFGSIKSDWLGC

Row | IC50 [3] | IC50 [12] | SMILES | IC50 [1] | IC50 [2] | IC50 [4] | IC50 [5] | IC50 [6] | IC50 [7] | IC50 [8] | IC50 [9] | IC50 [10] | IC50 [11]
1 | Not Active |  | O=C(NO)C1c2ccc(O)cc2CCN1S(=O)(=O)c1ccccc1 (configuration not stated) | 430 nM | 421 nM | 6320 nM | 335 nM | 184 nM | 858 nM | 218 nM | 1100 nM |  | 
2 |  |  | Cc1ccc(S(=O)(=O)N2CCc3cc(OCc4ccccc4)ccc3C2C(=O)NO)cc1 (configuration not stated) | 33 nM | 72 nM | 462 nM | 130 nM | 56 nM | 2050 nM | 44 nM | 62 nM | 12000 nM | 
3 |  |  | O=C(NO)C1c2ccc(O)cc2CCN1S(=O)(=O)c1ccc([N+](=O)[O-])cc1 (configuration not stated) | 76 nM | 59 nM | 41 nM | 258 nM | 177 nM | 791 nM | 126 nM | 521 nM | 21400 nM | 
4 | Not Active | Not Active | O=C(NO)C1c2ccc(OCc3ccccc3)cc2CCN1S(=O)(=O)c1cc(Cl)ccc1Cl (configuration not stated) | 1100 nM | 931 nM |  | 3120 nM | 4630 nM |  | 7300 nM | 20800 nM |  | Not Active
5 |  |  | O=C(NO)C1c2ccc(OCc3ccccc3)cc2CCN1S(=O)(=O)c1ccccc1 (configuration not stated) | 24 nM | 57 nM | 452 nM | 35 nM | 35 nM | 1450 nM | 17 nM | 39 nM | 7140 nM | 
6 |  |  | Cc1ccc(S(=O)(=O)N2CCc3cc(O)ccc3C2C(=O)NO)cc1 (configuration not stated) | 18 nM | 29 nM | 152 nM | 40 nM | 21 nM | 97 nM | 19 nM | 52 nM | 10500 nM | 
7 |  |  | COc1cc2c(cc1O)CCN(S(=O)(=O)c1ccccc1)C2C(=O)NO (configuration not stated) | 27 nM | 65 nM | 595 nM | 100 nM | 40 nM | 146 nM | 29 nM | 867 nM | 10700 nM | 
8 |  |  | COc1ccc(S(=O)(=O)N2CCc3cc(O)c(OC)cc3C2C(=O)NO)cc1 (configuration not stated) | 26 nM | 20 nM | 123 nM | 46 nM | 16 nM | 86 nM | 6 nM | 68 nM | 3190 nM | 
9 | Not Active |  | Nc1ccc(S(=O)(=O)N2CCc3cc(O)ccc3C2C(=O)NO)cc1 (configuration not stated) | 150 nM | 191 nM | 13200 nM | 248 nM | 202 nM | 492 nM | 385 nM | 835 nM |  | 
10 | Not Active |  | COc1ccc(S(=O)(=O)N2CCc3cc(O)ccc3C2C(=O)NO)cc1 (configuration not stated) | 724 nM | 7690 nM | 15000 nM | 4100 nM | 1680 nM | 7510 nM | 621 nM | 3110 nM |  | 
11 |  |  | COc1ccc(S(=O)(=O)N2CCc3cc(OCc4ccccc4)ccc3C2C(=O)NO)cc1 (configuration not stated) | 16 nM | 57 nM | 88 nM | 30 nM | 22 nM | 744 nM | 4 nM | 34 nM | 2420 nM | 
12 |  |  | O=C(NO)C1c2ccc(O)cc2CCN1S(=O)(=O)c1cc(Cl)ccc1Cl (configuration not stated) | 853 nM | 170 nM |  | 1880 nM | 1840 nM | 7900 nM | 1790 nM | 4610 nM | 21400 nM | Not Active
13 |  |  | CNC(=O)[C@H](Cc1c[nH]c2ccccc12)NC(=O)[C@@H](CC(=O)NO)CC(C)C [ILOMASTAT] |  | 13 nM |  |  | 8 nM | 17 nM |  | 23 nM |  | 
